Data published in patent publication EP0679645A1, “Pharmacologically active CNS pyridmidin compounds” (THE WELLCOME FOUNDATION LIMITED, priority 1990, dated 1991).

Legend:
[1] = test system: veratrine-evoked release of glutamate; test: Inhibition of veratrine-evoked release of glutamate from rat brain slices; format: cell-based; settings: P95 limits in brackets, read-out: IC₅₀(µM) Glutamate Release (P95 limits)
Protocol: (§1) Compounds according to the invention were tested for their effect on veratrine-evoked release of glutamate from rat brain slices according to the protocol described in Epilepsia 27(5): 490-497, 1986. The protocol for testing for inhibition of DHFR activity was a modification of that set out in Biochemical Pharmacology Vol. 20 pp 561-574, 1971.
(§2) The results are given in Table 1, the IC₅₀ being the concentration of compound to cause 50% inhibition of (a) veratrine-evoked release of glutamate and (b) of DHFR enzyme activity.

Rat Liver DHFR = target: T1, Rat Liver DHFR (Rattus norvegicus, UniProt Q920D2); test: Inhibition of rat liver DHFR enzyme activity; format: biochemical; settings: P95 limits in brackets, read-out: IC₅₀(µM) Rat Liver DHFR (P95 limits)
T1 construct: from tissue; host or cells: rat liver
T1 sequence (Q920D2 1-187): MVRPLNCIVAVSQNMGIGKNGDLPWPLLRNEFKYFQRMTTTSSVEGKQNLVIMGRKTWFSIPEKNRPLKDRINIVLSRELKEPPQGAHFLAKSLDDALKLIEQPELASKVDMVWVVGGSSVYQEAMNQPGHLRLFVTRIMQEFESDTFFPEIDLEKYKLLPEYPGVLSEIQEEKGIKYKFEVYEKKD
Protocol: as §1, §2

Half-life in the rat = format: in vivo; settings: statement in words

SMILES	IC50 [1]	IC50 (Rat Liver DHFR)	half-life in the rat (Half-life in the rat)
Nc1nc(N)c(-c2cc(Cl)cc(Cl)c2)c(C(F)(F)F)n1 [Compound 1, 2,4-Diamino-5-(3,5-dichlorophenyl)-6-trifluoromethyl pyrimidine]	< 10 µM	4.59 µM	
Cc1nc(N)nc(N)c1-c1c(Cl)ccc(Cl)c1Cl [Compound 2, 2,4-Diamino-6-methyl-5-(2,3,6-trichlorophenyl)pyrimidine]	< 10 µM	> 100 µM	
Nc1ncc(-c2cc(Cl)c(N)c(Cl)c2Cl)c(N)n1 [Compound 3, 2,4-Diamino-5-(4-amino-2,3,5-trichlorophenyl)pyrimidine]	2.5 µM	> 100 µM	
Cc1nc(N2CCN(C)CC2)nc(N)c1-c1cc(Cl)c(Cl)c(Cl)c1 [Compound 4, 4-Amino-2-(4-methyl-1-piperazinyl)-6-methyl-5-(3,4,5-trichlorophenyl)pyrimidine]	< 10 µM	100 µM	
Cc1nc(N)nc(N)c1-c1cc(Cl)c(Cl)c(Cl)c1 [Compound 5, 2,4-Diamino-5-(3,4,5-trichlorophenyl)-6-methyl pyrimidine]	< 10 µM	< 100 µM	
CCN(CC)c1ncc(-c2cc(Cl)cc(Cl)c2Cl)c(N)n1 [Compound 6, 4-Amino-2-diethylamino-5-(2,3,5-trichlorophenyl)pyrimidine]	10 µM	> 100 µM	
CC(C)Nc1ncc(-c2cc(Cl)cc(Cl)c2Cl)c(N)n1 [Compound 7, 4-Amino-2-(2-iso-propylamino)-5-(2,3,5-trichlorophenyl)pyrimidine]	< 10 µM	> 100 µM	
CN1CCN(c2ncc(-c3cc(Cl)cc(Cl)c3)c(N)n2)CC1 [Compound 8, 4-Amino-5-(3,5-dichlorophenyl)-2-(4-methyl-1-piperazinyl)pyrimidine]	0.27 µM	> 100 µM	long half-life
Nc1ncc(-c2cc(Cl)c(I)c(Cl)c2Cl)c(N)n1 [Compound 9, 2,4-Diamino-5-(4-iodo-2,3,5-trichlorophenyl)pyrimidine]	< 10 µM	> 100 µM	
C[N+]1([O-])CCN(c2nc(N)c(-c3cc(Cl)cc(Cl)c3Cl)c(C(F)(F)F)n2)CC1 [Compound 10, 4-Amino-2-(4-methyl-4-oxide-1-piperazinyl)-5-(2,3,5-trichlorophenyl)-6-trifluoromethyl-pyrimidine]	> 10 µM	> 100 µM	
COCc1nc(N2CCN(C)CC2)nc(N)c1-c1cc(Cl)cc(Cl)c1 [Compound 11, 4-Amino-5-(3,5-dichlorophenyl)-6-methoxymethyl-2-(4-methyl-1-piperazinyl)pyrimidine]	< 10 µM	> 100 µM	
CN(C)S(=O)(=O)c1c(Cl)cc(-c2cnc(N)nc2N)c(Cl)c1Cl [Compound 12, 2,4-Diamino-5[4-(N',N'-dimethylsulphamoyl)-2,3,5-trichlorophenyl]pyrimidine]	< 10 µM	13.8 µM	
CN1CCN(c2nc(N)c(-c3cc(Cl)cc(Cl)c3)c(C(F)(F)F)n2)CC1 [Compound 14, 4-Amino-5-(3,5-dichlorophenyl)-2-(4-methyl-1-piperazinyl)-6-trifluoromethyl pyrimidine]	0.137 µM	> 100 µM	
Nc1ncc(-c2cc(Cl)c(Cl)c(Cl)c2Cl)c(N)n1 [Compound 15, 2,4-Diamino-5-(2,3,4,5-tetrachlorophenyl)pyrimidine]	< 10 µM	> 100 µM	
C[C@@H]1CN(c2ncc(-c3cc(Cl)cc(Cl)c3Cl)c(N)n2)C[C@H](C)N1 [Compound 16, cis 4-Amino-2-(3,5-dimethyl-1-piperazinyl)-5-(2,3,5-trichlorophenyl)pyrimidine]	10 µM	> 100 µM	
CCCN1CCN(c2ncc(-c3cc(Cl)cc(Cl)c3Cl)c(N)n2)CC1 [Compound 17, 4-Amino-2-(4-n-propyl-1-piperazinyl)-5-(2,3,5-trichlorophenyl)pyrimidine]	2.17 µM	> 100 µM	
C[N+]1([O-])CCN(c2ncc(-c3cc(Cl)cc(Cl)c3Cl)c(N)n2)CC1 [Compound 18, 4-Amino-2-(4-methyl-4-oxide-1-piperazinyl)-5-(2,3,5-trichlorophenyl)pyrimidine]	> 10 µM	> 100 µM	
Cc1nc(N)nc(N)c1-c1cc(Cl)cc(Cl)c1[N+](=O)[O-] [Compound 19, 2,4-Diamino-5-(3,5-dichloro-2-nitrophenyl)-6-methyl-pyrimidine]	< 10 µM	5.56 µM	
CN1CCN(c2nc(N)ncc2-c2cccc(Cl)c2Cl)CC1 [Compound 20, 2-Amino-5-(2,3-dichlorophenyl)-4-(4-methyl-1-piperazinyl)pyrimidine]	10 µM	> 100 µM	
Nc1ncc(-c2cccc(Cl)c2Cl)c(N2CCOCC2)n1 [Compound 21, 2-Amino-5-(2,3-dichlorophenyl)-4-(N-morpholino)pyrimidine]	10 µM	> 100 µM	
Nc1nc(N2CCN(Cc3ccccc3)CC2)ncc1-c1cc(Cl)cc(Cl)c1Cl [Compound 22, 4-Amino-2-(4-benzyl-1-piperazinyl)-5-(2,3,5-trichlorophenyl)pyrimidine]	> 10 µM	< 100 µM	
Nc1ncc(-c2cc(Cl)c(N)c(Cl)c2)c(N)n1 [Compound 25, 2,4-Diamino-5-(3,5-dichloro-4-aminophenyl)pyrimidine]	> 10 µM	0.034 µM	
Cc1nc(N)nc(N)c1-c1cc(Cl)c(N)c(Cl)c1 [Compound 26, 2,4-Diamino-5-(3,5-dichloro-4-aminophenyl)-6-methyl pyrimidine]	< 10 µM	0.034 µM	
Nc1nc(N)c(-c2cc(Cl)c(N)c(Cl)c2)c(C(F)(F)F)n1 [Compound 27, 2,4-Diamino-5-(3,5-dichloro-4-aminophenyl)-6-trifluoromethyl pyrimidine]	10 µM	1.54 µM	
CCCCN1CCN(c2ncc(-c3cc(Cl)cc(Cl)c3Cl)c(N)n2)CC1 [Compound 28, 4-Amino-2-(4-n-butyl-1-piperazinyl)-5-(2,3,5-trichlorophenyl)pyrimidine]	< 10 µM	> 100 µM	
CCN1CCN(c2ncc(-c3cc(Cl)cc(Cl)c3Cl)c(N)n2)CC1 [Compound 29, 4-Amino-2-(4-ethyl-1-piperazinyl)-5-(2,3,5-trichlorophenyl)pyrimidine]	2.56 µM	> 100 µM	
CC(C)N1CCN(c2ncc(-c3cc(Cl)cc(Cl)c3Cl)c(N)n2)CC1 [Compound 30, 4-Amino-2-(4-isopropyl-1-piperazinyl)-5-(2,3,5-trichlorophenyl)pyrimidine]	< 10 µM	100 µM	
Nc1nc(N2CCN(C3CC3)CC2)ncc1-c1cc(Cl)cc(Cl)c1Cl [Compound 31, 4-Amino-2-(4-cyclopropyl-1-piperazinyl)-5-(2,3,5-trichlorophenyl)pyrimidine]	10 µM	> 100 µM	
CCN1CCN(c2nc(N)c(-c3cc(Cl)cc(Cl)c3)c(C(F)(F)F)n2)CC1 [Compound 32, 4-Amino-2-(4-ethyl-1-piperazinyl)-5-(3,5-dichlorophenyl)-6-trifluoromethyl pyrimidine]	2.43 µM	> 100 µM	
